Assay results as given in the supplement of paper PMC9663587.

What was measured:
Buparlisib/NVP-BKM120 = compound: Nc1cc(C(F)(F)F)c(-c2cc(N3CCOCC3)nc(N3CCOCC3)n2)cn1 [Buparlisib/NVP-BKM120]
[1] = compound: Cc1nn(C)c(COc2ccc(N3CCN(S(=O)(=O)N(C)C)CC3)cc2)c1-c1cccc2c(CCCOc3cccc4ccccc34)c(C(=O)O)n(CCN3CCOCC3)c12
YKL-5-124 = compound: C=CC(=O)Nc1ccc(C(=O)Nc2[nH]nc3c2CN(C(=O)N[C@H](CN(C)C)c2ccccc2)C3(C)C)cc1 [YKL-5-124]
BVD523 = compound: CC(C)Nc1cc(-c2c[nH]c(C(=O)N[C@H](CO)c3cccc(Cl)c3)c2)c(Cl)cn1 [BVD523]
TGX221 = compound: CC1=CN2C(=O)C=C(N=C2C(=C1)C(C)NC3=CC=CC=C3)N4CCOCC4 [TGX221]
INK128/MLN0128 = compound: CC(C)n1nc(-c2ccc3oc(N)nc3c2)c2c(N)ncnc21 [INK128/MLN0128]
[2] = compound: CNc1nc(-c2ccc3c(N)n[nH]c3c2)cc(N2C[C@@H](C(=O)NC3CCCCC3)CC[C@H]2C)n1
Everolimus = compound: CO[C@H]1C[C@@H]2CC[C@@H](C)[C@@](O)(O2)C(=O)C(=O)N2CCCC[C@H]2C(=O)O[C@H]([C@H](C)C[C@@H]2CC[C@@H](OCCO)[C@H](OC)C2)CC(=O)[C@H](C)/C=C(\C)[C@@H](O)[C@@H](OC)C(=O)[C@H](C)C[C@H](C)/C=C/C=C/C=C/1C [Everolimus]
Etoposide = compound: COc1cc([C@@H]2c3cc4c(cc3[C@@H](O[C@@H]3O[C@@H]5CO[C@@H](C)O[C@H]5[C@H](O)[C@H]3O)[C@H]3COC(=O)[C@H]23)OCO4)cc(OC)c1O [Etoposide]
[3] = compound: COc1cccc(OCCCN)c1-c1cc(Nc2cnc(C#N)cn2)n[nH]1
Bleomycin = compound: CC1=C(N=C(N=C1N)[C@H](CC(=O)N)NC[C@@H](C(=O)N)N)C(=O)N[C@@H]([C@H](C2=CN=CN2)OC3C(C(C(C(O3)CO)O)O)OC4C(C(C(C(O4)CO)O)OC(=O)N)O)C(=O)N[C@H](C)[C@H]([C@H](C)C(=O)N[C@@H]([C@@H](C)O)C(=O)NCCC5=NC(=CS5)C6=NC(=CS6)C(=O)NCCC[S+](C)C)O [Bleomycin]; settings: main component drawn
Topotecan = compound: CC[C@@]1(O)C(=O)OCc2c1cc1n(c2=O)Cc2cc3c(CN(C)C)c(O)ccc3nc2-1 [Topotecan]
Cisplatin = compound: N.N.Cl[Pt]Cl [Cisplatin]
FMF-03-145-1 = compound: CCC(=O)Nc1ccc(C(=O)Nc2ccc(Nc3ncc4c(n3)N(C)c3ccc(C)cc3C(=O)N4C)cc2)cc1 [FMF-03-145-1]
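Note: breast cancer and non-malignant breast epithelial cell lines, Deep Dye Drop or Dye Drop imaging, nine half-log doses, GR normalized to time-zero plates and DMSO-only controls.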

Row | Cell Line | GR50, 72 h (Buparlisib/NVP-BKM120) | GR50, 72 h [1] | GR50, 72 h (YKL-5-124) | GR50, 72 h (BVD523) | GR50, 72 h (TGX221) | GR50, 72 h (INK128/MLN0128) | GR50, 72 h [2] | GR50, 72 h (Everolimus) | GR50, 72 h (Etoposide) | GR50, 72 h [3] | GR50, 72 h (Bleomycin) | GR50, 72 h (Topotecan) | GR50, 72 h (Cisplatin) | GR50, 72 h (FMF-03-145-1)
1 | 184A1 | 1.52 µM | 3.65 µM | < 0.001 µM | 0.00782 µM | > 10 µM | 0.00892 µM | > 10 µM | > 10 µM |  |  |  |  |  | 
2 | BT20 | 0.638 µM | > 10 µM | 0.0135 µM | > 10 µM | > 10 µM | 0.0129 µM | > 10 µM |  | 0.301 µM | 0.000944 µM | 0.488 µM | 0.0123 µM | 0.791 µM | 
3 | BT474 | 0.281 µM | > 10 µM | < 0.001 µM | > 10 µM | > 10 µM | 0.00873 µM | 1.3 µM |  |  |  |  |  |  | 
4 | BT549 | 1.42 µM | > 10 µM | 0.00293 µM | > 10 µM | > 10 µM | 0.0166 µM | > 10 µM | > 10 µM | 0.181 µM | 2.27e-05 µM | 0.18 µM | 0.00847 µM | 1.02 µM | 
5 | CAL51 | 0.989 µM | > 10 µM | 0.00889 µM | > 10 µM | > 10 µM | 0.015 µM | > 10 µM | > 10 µM | 0.24 µM | 0.000588 µM | 0.169 µM | 0.0191 µM | 2.1 µM | 0.00666 µM
6 | CAL120 | 0.702 µM | > 10 µM | 0.00898 µM | 9.62 µM | > 10 µM | 0.0115 µM | > 10 µM | > 10 µM | 0.48 µM | 0.000952 µM | 1.69 µM | 0.00749 µM | 2.93 µM | 0.00643 µM
7 | CAL851 | 0.343 µM | > 10 µM |  |  | > 10 µM | 0.00883 µM | > 10 µM | 0.00155 µM | 0.416 µM | 0.000351 µM | 0.453 µM | 0.0158 µM | 1.03 µM | 0.00449 µM
8 | CAMA1 | 1.01 µM | > 10 µM |  | 2.73 µM | > 10 µM | 0.00961 µM | > 10 µM |  | 0.155 µM | 0.00063 µM | 1.69 µM | 0.00321 µM | 0.919 µM | 0.00649 µM
9 | EFM19 | 0.706 µM | > 10 µM | < 0.001 µM | > 10 µM | > 10 µM | 0.00896 µM | 2.18 µM | < 0.001 µM |  |  |  |  |  | 0.00827 µM
10 | EVSAT | 1.04 µM | > 10 µM | < 0.001 µM | > 10 µM | 1.39 µM | 0.0112 µM | 1.77 µM |  |  |  |  |  |  | 
11 | HCC38 | 1.27 µM | > 10 µM | < 0.001 µM | 4.75 µM | > 10 µM | 0.0191 µM | > 10 µM |  | 0.334 µM | 0.000505 µM | 0.199 µM | 0.00681 µM | 0.993 µM | 0.00507 µM
12 | HCC70 | 0.437 µM | > 10 µM | < 0.001 µM | 1.11 µM | 0.0912 µM | 0.0048 µM | 1.27 µM | 0.245 µM | 0.365 µM |  | 0.398 µM | 0.00946 µM | 1.32 µM | 
13 | HCC202 | 0.431 µM | > 10 µM |  | > 10 µM | > 10 µM | 0.0112 µM | 0.842 µM |  |  | 0.00549 µM |  |  |  | 
